Data taken from patent US4339440A, “Enkephalin analogs and a process for the preparation thereof” (priority 1980, dated 1982).
Square brackets hold non-standard residues; d marks the D form. Ends that are not written are not given here.

Experiments:
anesthetized cats = experiment: Cardiovascular effects in cats anesthetized with pentobarbital (blood pressure, heart rate, vasomotor reflex elicited by carotis occlusion); format: in vivo
Experimental: In addition to the effects on the blood pressure and heart rate, the actions on the vasomotor reflex elicited by carotis occlusion, were also studied. […] The duration of the former effects was 20-25 min., while that of the latter was 40-60 min. […] It is noteworthy that the reference compound morphine […] hypotension of similar magnitude produced by 0.1 mg/kg of peptides only in doses higher than 1.0 mg/kg (Table 2).
(a) Cats of both sexes, weighing 3000-4000 g, anesthetized with 35 mg/kg pentobarbital, i.p.
(b) C.O.: Inhibition of vasomotor reflex elicited by carotis occlusion;

mouse vas deferens (MVD) = settings: literature comparison of GPI and MVD preparations; cited from earlier work

Compound: CN1CC[C@]23c4c5ccc(O)c4O[C@H]2[C@@H](O)C=C[C@H]3[C@H]1C5 [Morphine, morphine]
- Decrease of heart rate (anesthetized cats; 0.2 mg/kg i.v.): .phi.
- Fall in blood pressure (anesthetized cats; 0.2 mg/kg i.v.): 6.7 ± 2.1 mm Hg
- Inhibition of C.O. (vasomotor reflex elicited by carotis occlusion) (anesthetized cats; 0.2 mg/kg i.v.): .phi.
- Decrease of heart rate (anesthetized cats; 1.0 mg/kg i.v.): 10.2 ± 2.3 beat/min.
- Fall in blood pressure (anesthetized cats; 1.0 mg/kg i.v.): 16.7 ± 3.2 mm Hg
- Inhibition of C.O. (vasomotor reflex elicited by carotis occlusion) (anesthetized cats; 1.0 mg/kg i.v.): + (inhibition is smaller than 50%)
- Decrease of heart rate (anesthetized cats; 5.0 mg/kg i.v.): 16.7 ± 3.5 beat/min.
- Fall in blood pressure (anesthetized cats; 5.0 mg/kg i.v.): 33.6 ± 6.7 mm Hg
- Inhibition of C.O. (vasomotor reflex elicited by carotis occlusion) (anesthetized cats; 5.0 mg/kg i.v.): ++ (inhibition is higher than 50%)
- Dose eliciting hypotension of similar magnitude to that produced by 0.1 mg/kg of peptides (anesthetized cats; i.v.): higher than 1.0 mg/kg
- Activity on MVD compared with GPI (in words) (mouse vas deferens (MVD)): higher activity on GPI

Compound: Tyr-D-Ala-Gly-MePhe-Met(O)-ol
- Activity on MVD compared with GPI (in words) (mouse vas deferens (MVD)): twice as active on GPI as on MVD

Compound: Tyr-D-Ala-Gly-Phe-D-Leu
- Activity on MVD compared with GPI (in words) (mouse vas deferens (MVD)): more active on MVD than on GPI

Compound: Y[dM]GFP-NH2
- Activity on MVD compared with GPI (in words) (mouse vas deferens (MVD)): the same level of activity on both preparations

Compound: β-Endorphine: β-Endorphine of natural occurrence (a 31-membered polypeptide) (YGGFMTSEKSQTPLVTLFKNAIIKNAYKKGE; Beta-endorphin; UniProt P01189 237-267, looked up)
- Activity on MVD compared with GPI (in words) (mouse vas deferens (MVD)): equally active on GPI and MVD
